The results in this text go back to US11369618B2, “Compounds, compositions and methods for prevention and/or treatment of cancer” (THE TRUSTEES OF THE UNIVERSITY OF PENNSYLVANIA, priority 2016, dated 2022).

SMILES strings stand for the structures. “Also recorded” adds a separate entry of the source.

The test system of test [1] is pCREB and c-Myc in NSCLC line TC-1. Put plainly: Western blot of TC-1 cells treated with G-1. It counts as cell-based. Conditions: TC-1, 500 nM, 1 hour.
Test [2] relates to mouse melanoma cell line B16F10. In words: in vivo treatment with G-1 of B16F10 melanoma (FIG. 6). Conditions: B16F10, FIG. 6.
Test [3] deals with Melanoma cells engineered to maintain c-Myc protein. Put plainly: c-Myc-transduced WM46 melanoma cells treated with G-1. The test is classed as cell-based, human. Conditions: c-Myc-transduced WM46, 16 hours. The method, then: FIG. 12 illustrates the finding that GPER signaling results in loss of c-Myc in melanoma. Panels A-C: Western blots of heMel (Panel A), WM46 (Panel B), and B16F10 (Panel C) melanoma transiently treated with E2 for 3 days, followed by 4 day withdraw. Panel D: Western blot of WM46 cells treated with a specific GPER agonist (G-1) for 16 hours. Panel E: Western blot of luciferase- or c-Myc-transduced WM46 cells treated with G-1 for 16 hours. Panel F: Western blot of WM46 cells treated with G-1 across a time course. Panel G: Western blot of WM46 cells treated with G-1, 100 μM PKA inhibitor Rp-8-Br-cAMPS (PKAi), or both for 1 hour. Panel H: Western blot of WM46 cells treated with G-1, […] proteasome inhibitor (MG132), or both for 1 hour. Panel I: Western blot of WM46 cells treated with 10 μg/ml cyclohexamide (CHX) with and without G-1.
Furthermore, GPER signaling induced a relative growth arrest, associated with hypophosphorylation of Rb in both mouse and human melanoma cells (FIG. 12, Panel D).

The test system of test [4] is mouse and human melanoma cell lines (B16F10, WM46, WM51, WM3702). In words: proliferation assay of mouse and human melanoma cell lines in vitro. The test is classed as cell-based. Particulars: estrogen 25 nM E2, G-1 100 nM, vs delivery vehicle. From the text:
(§1) FIGS. 4A-4F illustrate the finding that GPER signaling slows proliferation and drives differentiation in mouse and human melanoma. FIG. 4A: 5 day proliferation assay of B16F10, WM46 (BRAF^V600E), WM51 (BRAF^V600E), and WM3702 (NRAS^Q61L) cells treated with estrogen (E2), * denotes significance by a two-tailed T-test, n=3 per group. FIG. 4B: 5 day melanin assay of B16F10, WM46 (BRAF^V600E), WM51 (BRAF^V600E), and WM3702 (NRAS^Q61L) cells treated with E2, * denotes significance by a two-tailed T-test, n=3 per group. FIG. 4C: 5 day proliferation assay of B16F10, WM46 (BRAF^V600E), WM51 (BRAF^V600E) and WM3702 (NRAS^Q61L) cells treated with GPER agonist (G-1), * denotes significance by a two-tailed T-test, n=3 per group. FIG. 4D: 5 day melanin assay of B16F10, WM46 (BRAF^V600E), WM51 (BRAF^V600E), and WM3702 (NRAS^Q61L) cells treated with G-1, * denotes significance by a two-tailed T-test, n=3 per group. FIG. 4E: 3 day proliferation assay of B16F10 cells treated with a dose response of G-1, * denotes significance One-way ANOVA with Tukey's multiple comparison test, n=5 per group. FIG. 4F: Western blot of B16F10 cells treated for 16 hours with a saturating dose response of G-1. […]
(§2) Tumor cell proliferation slowed in both mouse and human melanoma cells following treatment with estrogen or G-1, a specific GPER agonist. […] Cell proliferation and differentiation (melanin production) were measured.

Test [5] has the same test system. Put plainly: melanin assay (differentiation) of mouse and human melanoma cell lines in vitro. It counts as cell-based. Conditions: estrogen 25 nM E2, G-1 100 nM, vs delivery vehicle.
Text: as §1, §2

Test [6] concerns pRB, c-myc and GPER in WM46 melanoma cells. Put plainly: Western blot of WM46 melanoma cells treated with increasing doses of G-1. It counts as cell-based, human. Particulars: WM46, increasing concentrations. (Immunoblotting shows a protein as a band on a membrane.)
In test [7] the test system is tumor infiltrating immune cells. Put plainly: immune profiling of tumors in YUMM 1.7 melanoma bearing mice. The test is classed as in vivo, mouse. From the text:
FIGS. 15A-15C illustrate the finding that G-1 treatment in vivo alters tumor infiltrating immune cells. […] FIG. 15B: Heatmap summarizing immune profiling across biological replicates, n=5 per group, * denotes significance by two-way ANOVA assuming each immune population is an independent measurement of immune activation. FIG. 15C: Quantification of individual immune populations from FIG. 15B, n=5 per group.

The subject of test [8] is c-Myc and pRB in syngeneic pancreatic ductal adenocarcinoma (PDAC) cell lines. Put plainly: Western blot of PDAC cell lines treated with G-1. Particulars: 500 nM, 1 hour.
Experimental: FIG. 17A: Western blot of c-Myc in several PDAC cell lines treated with 500 nM G-1 for 1 hour.
Using a newly available set of syngeneic pancreatic ductal adenocarcinoma (PDAC) cell lines, the effects of GPER activation on the levels of c-Myc protein were examined.
Test [9] deals with Mouse (B16) and human (WM46) melanoma cell lines. In words: tumor formation in mice from melanoma cells pretreated in vitro. It counts as in vivo. Conditions: melanoma cells pretreated in vitro, equal numbers injected into mice. The method, then:
FIG. 11A: Long-term melanin assay in which normal human melanocytes were transiently treated with progesterone (P4), or estrogen (E2). Subsets of these groups (Red) were treated with an additional transient pulse of P4 at Day 27. Error bars equal the standard deviation of the samples. FIG. 11B: Western blot of melanocyte differentiation markers after a transient, 4-day treatment with either vehicle or estrogen, followed by an 8 day withdraw period. FIG. 11C: Experimental timeline of estrogen or GPER agonist (G-1) pre-treatment of mouse and human melanoma cells, n=5 per group. FIG. 11D: Relative tumor weights of mouse and human melanomas pre-treated with estrogen, * denotes significance by the Mann-Whitney test. FIG. 11E: Relative tumor weights of mouse and human melanomas pre-treated with G-1, * denotes significance by the Mann-Whitney test.
Mouse (B16) and human (WM46) cell lines were pretreated with estrogen, G-1, or vehicle in vitro for one week then injected in equal numbers in to the left (vehicle-treated) or right (E2-treated) flank of mice, inducing tumor formation (N=5 mice per group) (FIG. 5). 14-16 days later, mice were imaged and tumors were harvested and weighed.
To test whether transient GPER signaling induces a persistent differentiation state in melanoma cells that affects subsequent tumor growth in vivo, melanoma cells were treated with estrogen, G-1, or vehicle in vitro, and subsequently injected equal numbers of treated cells into host mice (FIG. 11C).

In test [10] the test system is murine B16F10 melanoma cells. Put plainly: G-1-pretreated B16F10 cells injected into syngeneic C57BL/6 mice, then αPD-1 antibody or isotype control. The test is classed as in vivo, mouse. Conditions: B16F10 cells pretreated in vitro.
Text: FIG. 13D: Experimental timeline of vehicle or G-1 pre-treatment of B16F10 cells followed by treatment with either αPD-1 antibody or isotype antibody control (2A3), n=5 per group. FIG. 13E: Tumor volumes of treatment groups at Day 14, * denotes significance One-way ANOVA with Tukey's multiple comparison test. FIG. 13F: Survival curve of mice with tumors pre-treated with vehicle or G-1, followed by isotype antibody control (2A3) or αPD-1 antibody.
To determine whether tumor cell intrinsic GPER signaling influences melanoma vulnerability to immune checkpoint therapy, studies were performed, based on the observation that GPER-driven differentiation is long lasting. G-1 was used to activate GPER and drive differentiation in murine B16F10 melanoma cells in vitro (FIG. 13D). Then, equal numbers of vehicle or G-1-treated tumor cells were injected into syngeneic C57BL/6 mice and the animals were treated with either αPD-1 antibody or isotype antibody control.
A further test relates to PDAC tumors. Put plainly: PDAC tumor bearing mice treated with G-1. Particulars: tumors grown 18 days, dosing on 3 consecutive days, follow-up 4 days; 2 independent PDAC cell lines. The test is classed as in vivo, mouse.

As for `CC(=O)c1ccc2c(c1)[C@@H]1C=CC[C@@H]1[C@H](c1cc3c(cc1Br)OCO3)N2` (relative stereo) [Compound G-1, rel-1-[4-(6-bromo-1,3-benzodioxol-5-yl)-3aR,4S,5,9bS-tetrahydro-3H-cyclopenta[c]quinolin-8-yl]-ethanone], the “pCREB and c-Myc signaling effects” value in test [1] is on record as “the same signaling effects also occur”. Further, the “tumor growth in vivo” value in [2] is “inhibited tumor growth in vivo; also recorded: inhibits mouse melanoma cell line B16F10 growth in vivo”. Further, the “response of cells engineered to maintain c-Myc protein” value in test [3] is “resistant”. Moreover, the melanoma cell proliferation entry in test [4] is listed as “slowed melanoma cell proliferation”. The “differentiation (melanin production)” value in [5] was “drove differentiation”. In [6], the GPER expression entry is “elevation”, the c-myc levels entry is reported as “reduction” and the pRB levels result was “reduction”. Also, the “tumor infiltrating immune cell subsets” value in [7] is “increased several immune cell subsets, including T cells and NK cells”. Also, in test [8], the c-Myc entry is “reduced” and the pRB entry is “reduced”. For the same compound, the “tumor growth / tumor size from pretreated cells” value in test [9] is recorded as “formed significantly smaller tumors; also recorded: markedly reduced subsequent tumor size”. For the same compound, in [10], the subsequent tumor growth entry is reported as “inhibited subsequent tumor growth” and the survival entry is reported as “extended survival compared to controls”. In the test with PDAC tumors, the “tumor size (tumor weights)” value was “significantly smaller”.
